Holding throughout (assay): ≥ marks a high value that may be exact or a test limit, other limits are often not marked, values filed in µg/mL are converted to µM
In assay [1] the test system is Escherichia coli NCTC 10418.
The subject of assay [2] is Staphylococcus aureus NCTC 10788.
Assay [3] deals with Pseudomonas aeruginosa ATCC 27853.
The test system of assay [4] is Staphylococcus aureus ATCC 12493.
For assay [5], the system named is Candida albicans NCYC 1467.
The test system of assay [6] is Candida albicans NCPF 1467.
Assay [7] concerns Staphylococcus epidermidis ATCC 12228.
The subject of assay [8] is Salmonella enterica subsp. enterica serovar Pullorum ATCC 7913.
For assay [9], the system named is Candida krusei CGMCC 2.1857.
For assay [10], the system named is Candida albicans CGMCC 2.2086.
The test system of assay [11] is Candida tropicalis CGMCC 2.1975.
Assay [12] deals with Staphylococcus aureus ATCC 43300.
Assay [13] concerns Staphylococcus aureus ATCC 25923.
For assay [14], the system named is Candida albicans.
Assay [15] relates to Escherichia coli ATCC 25922.
The subject of assay [16] is Escherichia coli 1005.
Assay [17] concerns Candida parapsilosis CGMCC 2.3989.
Assay [18] concerns Staphylococcus aureus ATCC 29213.
The test system of assay [19] is Salmonella enterica subsp. enterica serovar Typhimurium ATCC 14028.
Assay [20] deals with Bacillus megaterium Bm11.
The subject of assay [21] is Escherichia coli D21.
Assay [22] deals with Escherichia coli ML-35.
The test system of assay [23] is Serratia marcescens ATCC 8100.
Assay [24] relates to Pseudomonas aeruginosa H103.
Assay [25] deals with Salmonella typhimurium C610.
Assay [26] has as its system Enterococcus faecalis.
The subject of assay [27] is Staphylococcus epidermidis.
Assay [28] deals with Escherichia coli O111:B4.
Assay [29] deals with Staphylococcus aureus SAP 0017.
Assay [30] has as its system Staphylococcus aureus K147.
Assay [31] relates to Bacillus subtilis.
In assay [32] the test system is Escherichia coli K12 MG1655.

Values after ≈ are worked out from the molar mass of the structure shown. Values joined by “and” are separate entries in the source; they are usually repeats but may differ in a detail not shown here. Equal values may be shown once. Some results are limits rather than exact numbers.

This is an account of results in DBAASP.

For `CC[C@H](C)[C@@H]1NC(=O)[C@H](CO)NC(=O)[C@H](CCCCN)NC(=O)[C@H]([C@@H](C)O)NC(=O)[C@H](Cc2c[nH]c3ccccc23)NC(=O)[C@@H](NC(=O)CNC(=O)[C@H](CCCN=C(N)N)NC(=O)[C@H](CC(C)C)NC(=O)[C@H](C)N)CSSC[C@@H](C(=O)N[C@@H](CCCCN)C(N)=O)NC(=O)[C@@H]2CCCN2C(=O)[C@H](CCCCN)NC(=O)[C@@H]2CCCN2C(=O)[C@@H]2CCCN2C1=O` [ALRGCWTKSIPPKPCK], the MIC in [1] is at least 512 µM; in assay [2], at least 512 µM; in assay [3], over 512 µM; in [4], at least 512 µM; in assay [5], at least 512 µM.
Take `CC[C@H](C)[C@H](NC(=O)CN)C(=O)NCC(=O)NCC(=O)N[C@@H](C)C(=O)N[C@@H](CC(C)C)C(=O)N[C@@H](CC(C)C)C(=O)N[C@@H](CO)C(=O)N[C@@H](Cc1ccccc1)C(=O)NCC(=O)N[C@@H](CCCCN)C(=O)N[C@@H](CO)C(=O)N[C@@H](C)C(=O)N[C@@H](CC(C)C)C(=O)N[C@@H](CCCCN)C(=O)NCC(=O)N[C@@H](CC(C)C)C(=O)N[C@@H](C)C(=O)N[C@@H](CCCCN)C(=O)NCC(=O)N[C@@H](CC(C)C)C(=O)N[C@@H](C)C(=O)N[C@@H](CCC(=O)O)C(=O)N[C@@H](Cc1cnc[nH]1)C(=O)N[C@@H](Cc1ccccc1)C(N)=O` [GIGGALLSFGKSALKGLAKGLAEHF]: the minimal inhibitory concentration (MIC) in assay [1] came out at 6.55 µM (≈ 16 µg/mL); in assay [2], 1.64 µM (≈ 4 µg/mL); in assay [3], 26.2 µM (≈ 64 µg/mL); in [4], 6.55 µM (≈ 16 µg/mL); in [6] it was 1.64 µM (≈ 4 µg/mL).
As to `CC[C@H](C)[C@H](N)C(=O)N[C@H](C(=O)N[C@@H](CCCN=C(N)N)C(=O)N[C@@H](CCCN=C(N)N)C(=O)N[C@H](C(=O)N[C@@H](CCCN=C(N)N)C(=O)N[C@@H](CCCN=C(N)N)C(=O)N[C@H](C(=O)N[C@H](C(N)=O)[C@@H](C)CC)[C@@H](C)CC)[C@@H](C)CC)[C@@H](C)CC` [IIRRIRRII], the minimal inhibitory concentration (MIC) in assay [7] is 64 µM (≈ 77.3 µg/mL); in assay [8], at least 32 µM; in assay [9] it was 16 µM (≈ 19.3 µg/mL); in [10], at least 64 µM; in [11] it was 4 µM (≈ 4.83 µg/mL); in [12], 64 µM (≈ 77.3 µg/mL). For the same compound, the MIC was over 64 µM in assay [13]; over 64 µM in assay [14]; 32 µM and 64 µM in assay [15]; 16 µM (≈ 19.3 µg/mL) in assay [16]; at least 64 µM in assay [17]; 64 µM (≈ 77.3 µg/mL) in assay [18]. For the same compound, the MIC in assay [19] was 64 µM (≈ 77.3 µg/mL).
With `CC(C)C[C@H](NC(=O)[C@H](Cc1ccc(O)cc1)NC(=O)[C@@H]1CCCN1C(=O)[C@@H]1CCCN1C(=O)[C@H](CCCN=C(N)N)NC(=O)[C@@H]1CCCN1C(=O)[C@H](CCCCN)NC(=O)[C@H](CCCCN)NC(=O)[C@@H](N)CCCCN)C(=O)N1CCC[C@H]1C(=O)N[C@@H](CCCN=C(N)N)C(=O)N1CCC[C@H]1C(=O)N[C@@H](CCCN=C(N)N)C(=O)N1CCC[C@H]1C(=O)N1CCC[C@H]1C(=O)O` [KKKPRPPYLPRPRPP], the MIC in [20] is 16 µM (≈ 29.2 µg/mL); in assay [7], over 64 µM; in assay [21], 1 µM (≈ 1.83 µg/mL); in [22], 2 µM (≈ 3.65 µg/mL); in assay [23], 8 µM (≈ 14.6 µg/mL); in assay [19], 0.5 µM (≈ 0.914 µg/mL).
`CC[C@H](C)[C@H](NC(=O)[C@H](CC(C)C)NC(=O)[C@H](C)NC(=O)[C@@H]1CCCN1C(=O)[C@H](CC(C)C)NC(=O)CNC(=O)[C@@H](NC(=O)[C@@H](NC(=O)[C@H](CC(C)C)NC(=O)[C@@H](NC(=O)[C@@H](NC(=O)[C@H](CC(C)C)NC(=O)[C@@H](NC(=O)[C@H](C)NC(=O)CNC(=O)[C@@H](NC(=O)CNC(=O)[C@H](CCCCN)NC(=O)[C@H](CCCCN)NC(=O)[C@H](CCCCN)NC(=O)[C@H](Cc1ccccc1)NC(=O)[C@H](CC(C)C)NC(=O)[C@H](CCCCN)NC(=O)[C@H](Cc1c[nH]c2ccccc12)NC(=O)[C@@H](N)CCCCN)[C@@H](C)O)C(C)C)[C@@H](C)O)C(C)C)[C@@H](C)O)[C@@H](C)O)C(=O)N[C@@H](CO)C(=O)O` [KWKLFKKKGTGAVLTVLTTGLPALIS]: the MIC in [24] was 5.77 µM (≈ 16 µg/mL); in assay [25] it was 2.89 µM (≈ 8 µg/mL); in assay [26], at least 46.2 µM; in assay [27], 5.77 µM (≈ 16 µg/mL); in assay [28], 2.89 µM (≈ 8 µg/mL); in assay [29] it was 11.5 µM (≈ 32 µg/mL). Besides, the results for the MIC in assay [30] and in assay [31] were 11.5 µM (≈ 32 µg/mL) and 5.77 µM (≈ 16 µg/mL), respectively.
For `CC[C@H](C)[C@H](NC(=O)[C@H](CC(C)C)NC(=O)[C@H](C)NC(=O)[C@@H]1CCCN1C(=O)[C@H](CC(C)C)NC(=O)[C@H](C)NC(=O)[C@@H](NC(=O)[C@@H](NC(=O)[C@@H](NC(=O)[C@@H](NC(=O)[C@H](CCCCN)NC(=O)[C@H](CCCCN)NC(=O)[C@H](CC(C)C)NC(=O)[C@@H](NC(=O)[C@H](CCCCN)NC(=O)[C@@H](NC(=O)[C@H](CC(C)C)NC(=O)[C@H](CC(N)=O)NC(=O)[C@H](CCCCN)NC(=O)[C@@H](NC(=O)[C@H](Cc1ccccc1)NC(=O)[C@H](CO)NC(=O)[C@H](CCCCN)NC(=O)[C@H](Cc1c[nH]c2ccccc12)NC(=O)[C@@H](N)CCCCN)[C@@H](C)CC)[C@@H](C)O)C(C)C)C(C)C)C(C)C)[C@@H](C)O)[C@@H](C)O)C(=O)N[C@@H](CO)C(=O)O` [KWKSFIKNLTKVLKKVVTTALPALIS], the MIC in [24] stood at 5.47 µM (≈ 16 µg/mL); in assay [25] it was 2.73 µM (≈ 8 µg/mL); in assay [26], 21.9 µM (≈ 64 µg/mL); in assay [27] it was 5.47 µM (≈ 16 µg/mL); in assay [28], 2.73 µM (≈ 8 µg/mL); in assay [29] it was 2.73 µM (≈ 8 µg/mL). Moreover, the MIC in [30] was 5.47 µM (≈ 16 µg/mL); in assay [31], 2.73 µM (≈ 8 µg/mL).
With `NC(=O)[C@H](CCCN=C(N)N)NC(=O)[C@H](Cc1c[nH]c2ccccc12)NC(=O)[C@H](Cc1c[nH]c2ccccc12)NC(=O)[C@H](CCCN=C(N)N)NC(=O)[C@H](CCCN=C(N)N)NC(=O)[C@H](Cc1c[nH]c2ccccc12)NC(=O)[C@H](CCCN=C(N)N)NC(=O)[C@H](CCCN=C(N)N)NC(=O)[C@H](Cc1c[nH]c2ccccc12)NC(=O)[C@H](Cc1c[nH]c2ccccc12)NC(=O)[C@@H](N)CCCN=C(N)N` [RWWRRWRRWWR], the minimum inhibitory concentration (MIC) in [7] stood at 4 µM (≈ 7.54 µg/mL); in [8], 4 µM (≈ 7.54 µg/mL); in assay [9], 2 µM (≈ 3.77 µg/mL); in [11] it was 2 µM (≈ 3.77 µg/mL); in [12], 4 µM (≈ 7.54 µg/mL); in assay [13], 8 µM (≈ 15.1 µg/mL). The minimum inhibitory concentration (MIC) in [14] came out at 4 µM (≈ 7.54 µg/mL); in assay [16], 8 µM (≈ 15.1 µg/mL); in assay [17] it was 16 µM (≈ 30.2 µg/mL); in assay [18], 4 µM (≈ 7.54 µg/mL); in assay [19] it was 8 µM (≈ 15.1 µg/mL).
In [32], `CC(C)C[C@H](NC(=O)[C@H](Cc1ccccc1)NC(=O)[C@H](CCCCN)NC(=O)[C@@H](N)CO)C(=O)N[C@@H](CO)C(=O)N[C@@H](CCCCN)C(=O)N[C@@H](CCCCN)C(=O)N1CCC[C@H]1C(=O)N[C@@H](CCCCN)C(=O)N[C@@H](CCCCN)C(=O)N[C@@H](CC(C)C)C(=O)N[C@@H](Cc1ccccc1)C(=O)N[C@@H](Cc1c[nH]c2ccccc12)C(=O)N[C@@H](Cc1ccccc1)C(=O)N[C@@H](CCCN=C(N)N)C(=O)N[C@@H](C)C(=O)O` [SKFLSKKPKKLFWFRA] showed a minimum inhibitory concentration (MIC) of at least 63.6 µM.
